Among the data in patent US8063088B2 (Hoffmann-La Roche Inc., priority 2008, dated 2011) are IC50 values, retold here.

In general, IC50 refers to the concentration needed to halve the response being measured.

One experiment has as its target T1, human LXR beta (Homo sapiens, UniProt P55055).
T1 construct: human LXR beta (aa 155 to 460); unspecified tag ('tagged versions'); made in house; host or cells: E. coli BL21 (pLysS)
T1 sequence (P55055 155-460): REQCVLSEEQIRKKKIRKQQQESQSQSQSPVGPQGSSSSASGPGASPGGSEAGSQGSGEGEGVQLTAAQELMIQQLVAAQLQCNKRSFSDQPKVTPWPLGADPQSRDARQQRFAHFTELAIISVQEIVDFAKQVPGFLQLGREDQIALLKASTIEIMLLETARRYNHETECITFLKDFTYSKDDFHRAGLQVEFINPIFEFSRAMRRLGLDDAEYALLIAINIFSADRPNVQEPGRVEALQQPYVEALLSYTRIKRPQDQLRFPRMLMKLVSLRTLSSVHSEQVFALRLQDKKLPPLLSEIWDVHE
Description: Radioligand binding assay (SPA), LXR beta LBD. The conditions noted are these: radioligand displacement, LXR beta-LBD on SPA beads; read-out: LXRbeta Binding IC50. Here is the method: (§1) The following tests were carried out in order to determine the activity of the compounds of the present invention. Background information on the performed assays can be found in: Nichols J S et al. “Development of a scintillation proximity assay for peroxisome proliferator-activated receptor gamma ligand binding domain”, Anal Biochem. 1998, 257: 112-119.
(§2) Mammalian expression vectors were constructed to express full-length human LXR alpha and LXR beta. Bacterial expression vectors were constructed to produce tagged versions of the ligand binding domains (LBD) of human LXR alpha (aa 164 to 447) and human LXR beta (aa 155 to 460). To accomplish this, the portions of the sequences encoding the LBDs were amplified from the full-length clones by PCR and then subcloned into the plasmid vectors. Final clones were verified by DNA sequence analysis (Willy et al., Genes Dev. 1995, 9:1033-45; Song et al., Proc Natl Acad Sci USA. 1994, 91:10809-13).
(§3) Induction, expression, and purification of LBD proteins were performed in E. coli strain BL21 (pLysS) cells by standard methods (Ref: Current Protocols in Molecular Biology, Wiley Press, edited by Ausubel et al).
(§4) Radioligand Binding Assay
(§5) LXR alpha and LXR beta receptor binding were assayed in buffer consisting of 50 mM HEPES, pH 7.4, 10 mM NaCl, 5 mM MgCl2. For each 96-well reaction, 500 ng of LXRα-LBD or 700 ng of LXR beta-LBD proteins were bound to 80 μg or 40 μg SPA beads respectively, in a final volume of 50 μl by shaking. The resulting slurry was incubated for 1 h at RT and centrifuged for 2 min at 1300×g. The supernatant containing unbound protein was removed, and the semi-dry pellet containing the receptor-coated beads was re-suspended in 50 μl of buffer. Radioligand (eg. 100,000 dpm of (N-(2,2,2-trifluoroethyl)-N-[4-(2,2,2-trifluoro-1-hydroxy-1-trifluoromethylethyl)-phenyl]-benzenesulfonamide)) was added, and the reaction incubated at RT for 1 h in the presence of test compounds, and then scintillation proximity counting was performed. All binding assays were performed in 96-well plates and the amount of bound ligand was measured on a Packard TopCount using OptiPlates (Packard). Dose response curves were measured within a range of concentration from 10^−10 M to 10^−4 M.
(In general: Loss of bound radioactivity is the signal in a displacement assay; it reports binding, not function.)

The target of the next experiment is T2, human LXR alpha (Homo sapiens, UniProt Q13133).
T2 construct: human LXR alpha (aa 164 to 447); unspecified tag ('tagged versions'); made in house; host or cells: E. coli BL21 (pLysS)
T2 sequence (Q13133 164-447): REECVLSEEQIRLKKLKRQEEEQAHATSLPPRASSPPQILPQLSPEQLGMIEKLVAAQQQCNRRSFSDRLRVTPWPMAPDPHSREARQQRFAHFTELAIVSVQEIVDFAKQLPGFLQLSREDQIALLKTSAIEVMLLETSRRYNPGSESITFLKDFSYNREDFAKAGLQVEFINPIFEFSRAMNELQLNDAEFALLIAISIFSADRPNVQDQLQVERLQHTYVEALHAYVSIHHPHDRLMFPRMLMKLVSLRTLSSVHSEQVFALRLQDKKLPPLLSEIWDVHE
The experiment is described as follows: Radioligand binding assay (SPA), LXR alpha LBD. The conditions noted are these: radioligand displacement, LXRα-LBD on SPA beads; read-out: LXRalpha Binding IC50. Here is the method: as §1, §2, §3, §4, §5

For `Cc1ccc(C)c(-c2cccc([C@H]3CN(C(=O)OC(C)(C)C)C(=O)C[C@H]3c3ccccc3)c2)c1` (relative stereo) [Example 47, Cis-5-(2′,5′-Dimethyl-biphenyl-3-yl)-2-oxo-4-phenyl-piperidine-1-carboxylic acid tert-butyl ester], the 50% inhibitory concentration (IC50) came out at 220 nM on human LXR beta and 185 nM at human LXR alpha.

Turning to `CC(C)N1C(=O)N(S(=O)(=O)c2ccccc2)CC1c1cccc(-c2cc(C#N)ccc2Cl)c1` (stereo not drawn) [Example 28, 3′-(1-Benzenesulfonyl-3-isopropyl-2-oxo-imidazolidin-4-yl)-6-chloro-biphenyl-3-carbonitrile], the IC50 came to 505 nM at human LXR beta and 2960 nM at human LXR alpha.

For `CC(C)N1C(=O)N(S(C)(=O)=O)CC1c1cccc(-c2cccc(S(C)(=O)=O)c2)c1` (stereo not drawn) [Example 17, 3-Isopropyl-1-methanesulfonyl-4-(3′-methanesulfonyl-biphenyl-3-yl)-imidazolidin-2-one], the values for the IC50 at human LXR beta and on human LXR alpha were 2730 nM and 52800 nM, respectively.

For `CS(=O)(=O)c1cc(-c2cccc(C3CN(S(=O)(=O)c4ccccc4)C(=O)N3c3ccccc3)c2)ccc1CO` (stereo not drawn) [Example 16, 1-Benzenesulfonyl-4-(4′-hydroxymethyl-3′-methanesulfonyl-biphenyl-3-yl)-3-phenyl-imidazolidin-2-one], the IC50 on human LXR beta worked out at 29 nM; at human LXR alpha, 475 nM.

As for `CC(C)N1C(=O)N(S(=O)(=O)c2ccccc2F)CC1c1cccc(-c2cccc(S(C)(=O)=O)c2)c1` (stereo not drawn) [Example 14, 1-(2-Fluoro-benzenesulfonyl)-3-isopropyl-4-(3′-methanesulfonyl-biphenyl-3-yl)-imidazolidin-2-one], the values for the IC50 on human LXR beta and on human LXR alpha were 6 nM and 10 nM, respectively.

As to `CS(=O)(=O)c1cccc(-c2ccc(C3CN(S(=O)(=O)c4ccccc4)C(=O)N3c3ccccc3)cc2)c1` (stereo not drawn) [Example 4, 1-Benzenesulfonyl-4-(3′-methanesulfonyl-biphenyl-4-yl)-3-phenyl-imidazolidin-2-one], the 50% inhibitory concentration (IC50) at human LXR beta worked out at 280 nM; at human LXR alpha, 1680 nM.

Take `O=C(O)c1ccc(-c2ccc(C3CN(S(=O)(=O)c4ccccc4)C(=O)N3c3ccccc3)cc2)cc1` (stereo not drawn) [Example 1, 4′-(1-Benzenesulfonyl-2-oxo-3-phenyl-imidazolidin-4-yl)-biphenyl-4-carboxylic acid]: the IC50 on human LXR beta came to 2880 nM; at human LXR alpha, 11600 nM.

`CC(C)(C)OC(=O)N1CC[C@@H](c2ccccc2)[C@H](c2cccc(-c3cccc(S(C)(=O)=O)c3)c2)C1` (relative stereo) [Example 38, trans-3-(3′-Methanesulfonyl-biphenyl-3-yl)-4-phenyl-piperidine-1-carboxylic acid tert-butyl ester]: the values for the half-maximal inhibitory concentration (IC50) at human LXR beta and at human LXR alpha were 25 nM and 160 nM, respectively.

For the compound `CS(=O)(=O)c1cccc(-c2cccc([C@@H]3CN(S(=O)(=O)c4ccccc4)CC[C@H]3c3ccccc3)c2)c1` (racemic) [Example 36, trans-1-Benzenesulfonyl-3-(3′-methanesulfonyl-biphenyl-3-yl)-4-phenyl-piperidine], the IC50 came to 25 nM at human LXR beta and 70 nM at human LXR alpha.

On to `CS(=O)(=O)Nc1cccc(-c2cccc(C3CN(S(=O)(=O)c4ccccc4)C(=O)N3c3ccccc3)c2)c1` (stereo not drawn) [Example 8, N-[3′-(1-Benzenesulfonyl-2-oxo-3-phenyl-imidazolidin-4-yl)-biphenyl-3-yl]-methanesulfonamide], for which the IC50 at human LXR beta turned out to be 74.5 nM; at human LXR alpha, 335 nM.

`CC(C)(C)OC(=O)N1C[C@H](c2cccc(-c3cncc(S(C)(=O)=O)c3)c2)[C@H](c2ccccc2)CC1=O` (relative stereo) [Example 46, cis-5-[3-(5-Methanesulfonyl-pyridin-3-yl)-phenyl]-2-oxo-4-phenyl-piperidine-1-carboxylic acid tert-butyl ester]: the IC50 at human LXR beta was 385 nM; on human LXR alpha it was 8220 nM.

Turning to `NCc1cccc(-c2cccc(C3CN(S(=O)(=O)c4ccccc4)CCN3c3ccccc3)c2)c1` (stereo not drawn) [Example 35, C-[3′-(4-Benzenesulfonyl-1-phenyl-piperazin-2-yl)-biphenyl-3-yl]-methylamine], the results for the IC50 at human LXR beta and at human LXR alpha were 425 nM and 2620 nM, respectively.
